In US20190008810A1, “METHOD FOR PREVENTION, TREATMENT AND ALLEVIATION OF INFECTIOUS DISEASES AND DISORDERS” (REPLICON HEALTH OY, priority 2016, published 2019):
Read-outs that look alike come from different tables or passages of the source.

Experiments:
[1] = tested on: rat primary optic nerve astrocytes; test: ROS generation (CellROX Green) in rat primary optic nerve astrocytes, Example 2; assay type: cell-based; conditions: 14 μM
Experimental: For proving the efficacy of DGA Activation in reducing ROS in infectious disorders an in vitro study using rat primary optic nerve astrocytes has been conducted. […] As an important part of the study the cell viability was estimated 6 hours after tBHP administration by two methods, i.e. LDH and MTT assays. Cell viability was measured using the in-house MTT assay (of Experimentica Ltd., Finland) and CytoTox96 non-radioactive cytotoxicity assay (G1780, Promega) in response to oxidative stress primary optic nerve astrocytes. The production of reactive oxygen species (ROS) was measured using CellROX Green (Invitrogen) and isolate RNA in RNALater solution (Ambion). Primary optical nerve astrocytes where obtained from 4-week-old male Wister rats (6 animals' altogether) and where cultured to obtain sufficient amount of cells for the experiment. In the experiment cells where plated at 5000 cells per well and allowed to adhere for 24 hrs prior to the administration of compounds for 48 hrs (replenished every 24 hrs). After 24 hrs the compounds were removed, and readded with new medium for 1 hr, prior to the administration of 85 μM tBHP (FIG. 3c). MTT and LDH assay were performed after 6 hrs and ROS detection using CellROX green was performed over a time course of 4 hrs. D-glyceric acid was mixed into the medium in beforehand in soluble calcium salt format (DGAcs). After mixing the calcium is liberated to the medium from the D-glyceric acid. D-glycerate is formed.

[2] = tested on: seasonal flu or similar infectious disease; assay type: in vivo, human
severe IBD = assay type: in vivo, human
Description: During the year following acute bowels infection and inflammation described in above (Example 1 e) they were placed by a specialist MD into queue for demanding operation to remove inflammation prone part from their bowels. While waiting for this operation (roughly a year from above described previous serious bowels inflammation (IBD)) S4 got serious IBD again. This happened as a follow up of two-week business trip during which the diet was not at all optimal and working was rather intensive.
By Saturday the symptoms were so severe that S4 could not walk properly. It was decided that […] rests for the weekend and goes to a doctor on Monday morning.
Because based on Example 1 e it is already known that the DGA Activation can efficiently reduce IBD in S4, it was decided that S4 starts using DGA immediately to reduce the inflammation. (Also, all other information presented in this application, including all other experiments and dose response analyses were available already, except for Example 1 g.) Initial dose was set relatively high because the inflammation was very severe and because it is known from all other experiments that there were no negative effects for S4 from the DGA Activation. 3×200 mg mixed into 2 dl of water was taken 3 times during Saturday, first dose at 0300 pm, next dose 2 hours thereafter and the last dose 4 hours after the second dose, i.e. at 0900 pm. Inflammatory symptoms remained high but fever reduced from 36.80 Celsius (before DGA activation) to 36.03 by 0939 pm. Paracetamol (1000 mg) was taken after the last fever measurement thus not affecting the decline. Another paracetamol was taken earlier the day at 0346 pm.

[3] = tested on: acute upper respiratory infection (nose and throat); test: Healing from acute upper respiratory infection in S1, Example 1c; assay type: in vivo, human
Description: After successful healing process in November 2014 (Example 1b), S1 was almost excited when they got acute upper respiratory infection when traveling abroad around New Year 2015. Symptoms: a virus infection in throat and rhinitis had lasted for three days before initiation of the DGA activation. S1 felt also feverish during this three-day period (unfortunately there was no thermometer around during the travel).
Administration on the fourth day of the infection: In the morning at 0940 am S1 took 2×250 mg of D-glyceric acid calcium salt dehydrate mixed into the water. Now, swelling and aching of the throat was quite substantial like had been the case already on the previous night, also some fever was felt.
At 0330 pm S1 took 2×180 mg of D-glyceric acid calcium salt mixed into water to keep the DGA Activation alive. Swelling had reduced a little but this could be due to circadian variation. Third dose of the day (2×180 mg) was received at 0915 pm. Throat continued to feel better towards the night, alleviation of the symptoms compared to the morning and to the previous night was significant.
Next morning at 0715 1×200 mg was received. […] However, some swelling in the throat remained but no pain. On top of the DGA Activation 1×500 mg of paracetamol was received at 0840 am, mimicking combination medication like e.g. Tylenol Cold.
Second 1×200 mg dose was received at 0200 pm. […]

metabolism of alcohol = conditions: administered with ethanol to rats; cited from earlier work
[4] = tested on: primary human hepatocytes; test: Net ROS generation in human primary hepatocytes; assay type: cell-based; conditions: donors
Experimental: D-glycerate is coded as RH013001 in the graph. […] ARE -activation happens when Nrf2 detaches from cytosolic KEAP1 enzyme and moves to nucleus (SCHEME B).
FIG. 13b: Gene Expression results from Primary Hepatocytes after 48 h+2 h of the DGA Activation vs. 0-control. […] Combined test for PGC-1a yielded P-value of some 10%. Primary human hepatocytes were purchased from Celsis In Vitro Technologies (1450 South Rolling Road Baltimore, Md. 21227, USA). Primary hepatocytes were received from three different post mortem human donators. […] This is also the case for DOO.

intraocular pressure = test: Intraocular pressure (IOP) in glaucoma, S1; assay type: in vivo, human
Description: FIG. 12: Numerical values of the reduction in IOP in Glaucoma after DGA Administration.
The same seems to be true for the efficacy of glaucoma therapy in FIG. 12.

SMILES: O=C(O)[C@H](O)CO [DGA, D-glyceric acid]
- ROS generation vs 0-controls ([1]; 0 tBHP (healthy conditions)): lower
- increase of average ROS generation in 15 minutes, tBHP group compared to without tBHP ([1]; 85 μM tBHP, 0 min to 15 min, control approximately 20%): approximately 30%
- ROS level vs control groups ([1]; 15, 30 and 60 minutes after bolus 85 μM tBHP): statistically significantly lower
- time to alleviation of all symptoms of two-week long infection ([2]; S1): 24 h
- time to visible alleviation ([2]; S1): 12 to 24 h
- body temperature (fever) ([2]; S1, Monday 0130 pm after 2 doses of 3×200 mg Sunday night and 2×200 mg Monday morning, 37.0 on Sunday): 36.62 celcius
- body temperature ([2]; S1, Monday 0700 pm): 36.61 celcius
- time until prolonged mild disease state disappeared ([2]; human, in vivo): 2 days
- time to restoring defecation (severe IBD; S4): 12 to 16 h
- Blood CRP (severe IBD; S4, Friday 1100 am): 11
- CRP level (severe IBD; S4, Monday 0030 pm, 3×200 mg four times a day): 85
- fever (severe IBD; S4, Saturday 0939 pm after 3 doses of 3×200 mg, 36.80 before): 36.03 Celsius
- fever (severe IBD; S4, Sunday 0115 pm, normal 36.1): 35.83
- fever (severe IBD; S4, Sunday 0145): 36.16
- CRP (severe IBD; S4, Wednesday noon, without antibiotics): 22
- side effects (severe IBD; in vivo): did not cause any side effects
- fever next morning ([3]; S1, morning after first day of dosing): No fever was observed
- time to conquer the acute upper respiratory infection ([3]; S1, started on fourth day of infection, 2×250 mg then 2×180 mg doses): 12 to 48 h
- metabolism of alcohol (metabolism of alcohol): expedited the metabolism of alcohol
- net ROS generation [4]: declined for both JGM and CDP statistically very significantly
- IOP reduction, sufficiency of acute dose (intraocular pressure; acute dose 1*200 mg): not necessarily sufficient
- IOP compared to relevant control measurement (intraocular pressure; first measurement under the full DGA Activation): very significant reduction in IOP
